Patent US7709488B2, “Imidazopyridine-derivatives as inducible no-synthase inhibitors” (Altana Pharma AG, priority 2003, dated 2010)

Legend:
[1] = biological target: human inducible NO-synthase (Homo sapiens, UniProt P35228); assay: Measurement of inducible NO-synthase activity ([3H]arginine conversion, crude cytosolic fraction); assay type: biochemical; settings: 0.1 μM arginine, 45 to 60 min at 37° C., pH 7.2; read-out: Inhibition of iNOS activity [measured as −logIC50 (mol/l)] (converted)
Description: Measurement of Inducible NO-Synthase Activity
The assay is performed in 96-well microtiter F-plates (Greiner, Frickenhausen, FRG) in a total volume of 100 μl in the presence of 100 nM calmodulin, 226 μM CaCl2, 477 μM MgCl2, 5 μM flavin-adenine-dinucleotide (FAD), 5 μM flavin mononucleotide (FMN), 0.1 mM NADPH, 7 mM glutathione, 10 μM BH4 and 100 mM HEPES pH 7.2. Arginine concentrations are 0.1 μM for enzyme inhibition experiments. 150000 dpm of [^3H]arginine are added to the assay mixture. Enzyme reaction is started by the addition of 4 μg of a crude cytosolic fraction containing human inducible NO-synthase and the reaction mixture is incubated for 45 to 60 min at 37° C. Enzyme reaction is stopped by adding 10 μl of 2M MES-buffer pH 5.0. 50 μl of the incubation mixture are transferred into a MADP N65 filtration microtiter plate (Millipore, Eschbom, FRG) containing already 50 μl of AG-50W-X8 cation exchange resin (Biorad, München, FRG). The resin in the Na loaded form is pre-equilibrated in water and 70 μl (corresponding to 50 μl dry beads) are pipetted under heavy stirring with a 8 channel pipette into the filtration plate. After pipetting 50 μl of the enzyme reaction mixture onto the filtration plates, the plates are placed on a filtration manifold (Porvair, Shepperton, UK) and the flow through is collected in Pico scintillation plates (Packard, Meriden, Conn.). The resin in the filtration plates is washed with 75 μl of water (1×50 μl and 1×25 μl) which is also collected in the same plate as the sample. The total flow through of 125 μl is mixed with 175 μl of Microscint-40 scintillation cocktail (Packard) and the scintillation plate is sealed with TopSeal P-foil (Packard). Scintillation plates are counted in a scintillation counter.
For the measurement of inducible NO-synthase-inhibiting potencies of compounds increasing concentrations of inhibitors were included into the incubation mixture. IC50-values were calculated from the percent inhibition at given concentrations by nonlinear least square fitting.
The inhibitory values determined for the compounds according to the invention follow from the following table A, in which the compound numbers correspond to the example numbers.

IC50 [1] | melting point | SMILES
43.7 nM | 219 to 220 °C | COc1ccnc(CCc2nc3cc(-c4ccc(S(=O)(=O)Nc5ccc(C)cc5)cc4)cnc3[nH]2)c1 [Compound 25, 4-{2-[2-(4-Methoxypyridin-2-yl)ethyl]-3H-imidazo[4,5-b]pyridin-6-yl}-N-p-tolyl-benzenesulfonamide]
34.7 nM | 215 to 216 °C | COc1ccnc(CCc2nc3cc(-c4ccc(S(=O)(=O)Nc5ccccc5OC)cc4)cnc3[nH]2)c1 [Compound 26, 4-{2-[2-(4-Methoxypyridin-2-yl)ethyl]-3H-imidazo[4,5-b]pyridin-6-yl}-N-(2-methoxyphenyl)-benzenesulfonamide]
45.7 nM | 221 to 222 °C | COc1ccnc(CCc2nc3cc(-c4ccc(S(=O)(=O)Nc5ccc(N(C)C)cc5)cc4)cnc3[nH]2)c1 [Compound 27, N-(4-Dimethylamino-phenyl)-4-{2-[2-(4-methoxypyridin-2-yl)ethyl]-3H-imidazo-[4,5-b]pyridin-6-yl}benzenesulfonamid]
